Assay results as given in patent publication US20100160339A1, “TREATING PANCREATITIS” (MAYO FOUNDATION FOR MEDICAL EDUCATION AND RESEARCH, priority 2007, published 2010).
“Also recorded” adds a separate entry of the source.

What was measured:
[1] = test system: suprastimulation-induced pancreatitis; test: Caerulein-induced pancreatitis in vivo; set-up: species or system mice
Text: Male 100-120 gm Sprauge Dawley (Harlan Laboratories, Indianapolis, Ind.) mice that were housed and fed under standard conditions were used. Caerulein, the CCK analog, was obtained from Research Plus (Bayonne, N.J.). Antibodies to phosphotyrosine (4G10) and cortactin (4F11) antibodies were obtained from Upstate (Charlottesville, Va.). Pan Src antibody (SC-18), Fyn (SC-16) and c-Src antibody H-12 were obtained from Santa Cruz (Santa Cruz, Calif.), and active Src (PY416), Yes and Lyn antibodies were obtained from Transduction Labs (Lexington, Ky.). Polyclonal antibody to cortactin (AB3) was produced as described elsewhere (Cao et al., Mol. Cell Biol., 23(6):2162-2170 (2003)). Secondary antibodies for immunofluorescence (Alexa 488 and Alexa 594) and Prolong gold were obtained from Invitrogen Corporation (Carlsbad, Calif.). Secondary antibodies for western blotting (goat anti-rabbit and goat anti-mouse HRP) were obtained from Affinity Bioreagents (Golden, Colo.). Collagenase type IV was obtained from Worthington Biochemical Corporation (Lakewood, N.J.). PP2 and SU6656 were obtained from Calbiochem (San Diego, Calif.) and were dissolved as a 1000× stock in DMSO. All other reagents were purchased from Sigma.
Animals (6 animals in each group) were given a single intraperitoneal injection of saline (control) or caerulein (20 μg/kg) in saline as described elsewhere (Bhagat et al., Gastroenterology, 122(1): 156-165 (2002)). After 6 hours, blood and tissue samples were harvested and frozen or fixed in 4% formaldehyde. When used, PP2 was dissolved in DMSO and given at a dose of 3 mg/kg in a 0.1-mL volume intraperitoneally 30 minutes before caerulein. Animals pretreated with vehicle were given DMSO only.
Five μm sections of paraffin-embedded pancreas and lung were stained with hematoxylin/eosin (H&E). For immunohistochemistry of pancreas, 5 μm sections were made from OCT embedded tissue, fixed with 4% paraformaldehyde, and immunostained as described herein. Serum amylase activity was measured colorimetrically using the Phadebas assay (Pharmacia Diagnostics, Portage, Mich.). Edema was measured by subtracting the dry weight from the wet weight and presented as a percentage of wet weight.
The results reported represent the mean±SEM of values obtained from three or more experiments and compared using Student's t test when the data consisted of only two groups or ANOVA when comparing three or more groups. If ANOVA indicated a significant difference, the data were analyzed by using Tukey's method as a post-hoc test for the difference between groups. A p value of 0.05 was considered significant.

[2] = test system: pancreatic acini; test: Basal relocation of cortactin and actin in suprastimulated acini (immunofluorescence); type: cell-based, mice; conditions: 10 nM CCK
Method: (§1) Acini were harvested in a buffer containing 20 mM HEPES (pH 7.4), 120 mM NaCl, 5 mM KCl, 1 mM MgCl2, 1 mM CaCl2, 10 mM glucose, 10 mM sodium pyruvate, 0.1% bovine serum albumin, and 0.01% soybean trypsin inhibitor with 100 units/mL collagenase, as described elsewhere (Torgerson and McNiven, J. […] Viability prior to use was >95% by trypan blue exclusion. The harvested acini were used as described elsewhere (Torgerson and McNiven, J. Cell Sci., 111 (Pt. 19):2911-22 (1998)).
(§2) Acini were plated on plain glass coverslips as described elsewhere (Torgerson and McNiven, J. Cell Sci., 111 (Pt. 19):2911-22 (1998)), fixed with 2% paraformaldehyde, and permeabilized with 0.6% Triton X-100. The acini were then blocked with 5% normal goat serum followed by incubation with the primary antibodies (4F11 diluted 1/1000, SC-18 diluted 1/300, or anti-Yes diluted 1/1000) for one hour at room temperature followed by washing and incubation with secondary antibodies ( 1/500) with or without rhodamine phalloidin (100 nM) for 30 minutes. The acini were then washed and mounted using Prolong gold. Acini with 6-12 cells were randomly chosen for imaging. The number of blebs was counted along with the number of cells, and expressed as bleb number per 100 cells. The final number expressed as mean±SEM was from at least three different experiments. […]

[3] = test system: Src; test: Cortactin tyrosine phosphorylation in pancreatic acini suprastimulated with 10 nM CCK (immunoprecipitation, 4G10 western blot); type: cell-based, mice
Method: as §1
(§3) Acini or tissue were homogenized in a buffer containing 50 mM Tris (pH 7.2), 150 mM NaCl, 0.5 mM EDTA, 1 mM EGTA, 2 mM DTT, 1 mM sodium orthovanadate, 25 mM NaF, and 1% NP-40, using a protease inhibitor cocktail (Complete; Cat. # 1873580; Roche) to prevent proteolysis. […] After Western blotting using appropriate protocols and dilutions of antibodies ( 1/100000 for AB3, 1/1000 for 4G10, 1/500 for SC-18, 1/1000 for PY416, 1/5000 for Yes, 1/200 for H-12 (c-Src), 1/200 for fyn, and 1/200 for Lyn) as recommended by the manufacturer, band intensity was quantified using Adobe Photoshop 6.0, and backgrounds were subtracted for the appropriate lanes. […] Quantification was performed from two or more experiments. […]

[4] = test system: pancreatic acini; test: Suprastimulation-induced blebbing of acini (bleb number per 100 cells); type: cell-based, mice; conditions: 10 nM CCK, 94.2±4.1% without inhibitor, mean±SEM
Method: as §1, §2

[5] = test system: Src-cortactin complex; test: Dissociation of the Src-cortactin complex after 10 nM CCK (Src immunoprecipitation, blot for cortactin); type: cell-based, mice; conditions: 2 minutes, PP2 pre-incubation
Method: Acini were harvested in a buffer containing 20 mM HEPES (pH 7.4), 120 mM NaCl, 5 mM KCl, 1 mM MgCl2, 1 mM CaCl2, 10 mM glucose, 10 mM sodium pyruvate, 0.1% bovine serum albumin, and 0.01% soybean trypsin inhibitor with 100 units/mL collagenase, as described elsewhere (Torgerson and McNiven, J. Cell Sci., 111 (Pt. 19):2911-22 (1998)) were filtered through a 70 μm mesh and kept at 37° C. for two hours before use during which time these were pre-incubated with 20 μM of inhibitors (PP2 or SU6656), if necessary. Viability prior to use was >95% by trypan blue exclusion. The harvested acini were used as described elsewhere (Torgerson and McNiven, J. Cell Sci., 111 (Pt. 19):2911-22 (1998)).
as §3

Q: Which results are given for `CC(C)(C)n1nc(-c2ccc(Cl)cc2)c2c(N)ncnc21` [PP2]?
A: cortactin phosphorylation in pancreas in vivo ([1]; 3 mg/kg PP2 intraperitoneally 30 minutes before 20 μg/kg caerulein, preliminary data): adequate to inhibit cortactin phosphorylation; increase in serum amylase over controls ([1]; PP2 3 mg/kg ip 30 minutes before caerulein 20 μg/kg, 6 hours, CER+Veh 4.8±0.5 fold, p <0.02): 2.4±0.2 fold; pancreatic edema as measured by water content ([1]; PP2 3 mg/kg ip 30 minutes before caerulein 20 μg/kg, 6 hours, CER+Veh 81.1±0.8%, control 75.1±0.5%, p<0.05): 76.7±0.6%; morphology of the pancreas (vacuolation, blebbing-like fragmentation, apoptosis, interstitial edema, inflammatory cells; H&E) ([1]; PP2 3 mg/kg ip 30 minutes before caerulein, 6 hours): dramatically prevented these phenomena; basolateral relocation of actin and cortactin in pancreas cryosections ([1]; PP2 3 mg/kg prophylactically): prevented this basolateral relocation; basal relocation of cortactin and actin ([2]; PP2 20 μM): prevented this basal relocation of cortactin; also recorded: prevented the basal relocation of cortactin; cortactin phosphorylation ([3]; acini pre-incubated with PP2 at 20 μM): completely prevented cortactin phosphorylation; blebbing ([4]; PP2 20 μM): 16.9±6.0%; dissociation of the Src-cortactin complex [5]: prevented

Q: For `CN(C)S(=O)(=O)c1ccc2c(c1)/C(=C/c1cc3c([nH]1)CCCC3)C(=O)N2` [SU6656], which “basal relocation of cortactin and actin” value ([2]; SU6656 10 μM) is on record?
A: The value was “prevented the basal relocation of cortactin”.

Q: What about the cortactin phosphorylation ([3]; acini pre-incubated with SU6656 at 10 μM) of the same compound?
A: Its cortactin phosphorylation is “completely prevented cortactin phosphorylation”.

Q: And the blebbing ([4]; SU6656 10 μM)?
A: The blebbing was 21.0±6.0%.
